Measurements as given in the supplement of paper PMC10307832.

Tests used:
Assay in all cases: relative viability (nuclei count vs DMSO), 5 days (fraction); higher = more cells survive
[1] = compound: C1CCC(CC1)N(CCNCCC2=C3C(=C(C=C2)O)NC(=O)CO3)C(=O)CCNCCC4=CC(=C(C=C4)Cl)Cl [AZ505] + CC(=O)c1c(C)c2cnc(Nc3ccc(N4CCNCC4)cn3)nc2n(C2CCCC2)c1=O [Palbociclib] (partner 0.5 µM)
Method in brief: (§1)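 Values are medians from duplicate plates. Each reflects relative viability, defined as the nuclei count of treated wells over that of vehicle wells. Lung cancer cell lines in 1536-well plates were pin-tool dosed one day after seeding with one drug alone or with a fixed anchor-drug dose plus five library-drug doses (not always all listed) in √10 steps, then fixed, stained and imaged at 4× after 5 days.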

[2] = compound: C1CCC(CC1)N(CCNCCC2=C3C(=C(C=C2)O)NC(=O)CO3)C(=O)CCNCCC4=CC(=C(C=C4)Cl)Cl [AZ505] + CC1(C)CCC(c2ccc(Cl)cc2)=C(CN2CCN(c3ccc(C(=O)NS(=O)(=O)c4ccc(N[C@H](CCN5CCOCC5)CSc5ccccc5)c(S(=O)(=O)C(F)(F)F)c4)cc3)CC2)C1 [Navitoclax] (partner 0.5 µM)
Method in brief: as §1

[3] = compound: Cn1c(=O)n(-c2ccc(C(C)(C)C#N)cc2)c2c3cc(-c4cnc5ccccc5c4)ccc3ncc21 [Dactolisib] + C[C@]1(O)C[C@@H](c2nc(-c3ccc4ccc(-c5ccccc5)nc4c3)c3c(N)nccn32)C1 [Linsitinib] (partner 1 µM)
Method in brief: as §1

[4] = compound: Cn1c(=O)n(-c2ccc(C(C)(C)C#N)cc2)c2c3cc(-c4cnc5ccccc5c4)ccc3ncc21 [Dactolisib] + C[C@@H](Oc1cc(-c2cnn(C3CCNCC3)c2)cnc1N)c1c(Cl)ccc(F)c1Cl [Crizotinib] (partner 1 µM)
Method in brief: as §1

Cell Line	relative viability ([1]; first compound 0.08 µM)	relative viability ([1]; first compound 0.253 µM)	relative viability ([1]; first compound 0.8 µM)	relative viability ([1]; first compound 2.53 µM)	relative viability ([1]; first compound 8 µM)	relative viability ([2]; first compound 0.08 µM)	relative viability ([2]; first compound 0.253 µM)	relative viability ([2]; first compound 0.8 µM)	relative viability ([2]; first compound 2.53 µM)	relative viability ([2]; first compound 8 µM)	relative viability ([3]; first compound 0.002 µM)	relative viability ([3]; first compound 0.006325 µM)	relative viability ([3]; first compound 0.02 µM)	relative viability ([3]; first compound 0.06325 µM)	relative viability ([3]; first compound 0.2 µM)	relative viability ([4]; first compound 0.002 µM)	relative viability ([4]; first compound 0.006325 µM)	relative viability ([4]; first compound 0.02 µM)	relative viability ([4]; first compound 0.06325 µM)	relative viability ([4]; first compound 0.2 µM)
NCI-H2085	0.451	0.469	0.459	0.477	0.446	1.08	1.12	1.04	1.06	1.2	1.03	0.714	0.636	0.361	0.381	0.904	0.763	0.668	0.523	0.305
NCI-H2087	0.225	0.27	0.312	0.22	0.197	1.01	0.975	1.05	0.989	0.873	1.02	0.955	0.919	0.555	0.429	0.952	0.85	1.04	0.63	0.785
NCI-H2126	0.353	0.375	0.365	0.366	0.338	0.818	0.88	0.83	0.857	0.863	0.807	0.662	0.674	0.521	0.422	1.07	1.03	0.98	0.713	0.537
NCI-H2228	0.554	0.723	0.69	0.768	0.918	0.889	0.978	0.692	0.716	0.612	0.659	0.488	0.436	0.323	0.193	0.601	0.283	0.297	0.252	0.175
